In patent US9884832B2 (priority 2011, dated 2018):

target: AM2 S31 (wild-type serine at position 31 in the M2 protein), influenza virus A/Udorn/72 (Influenza A virus, UniProt P0DOF5); assay: cell-based; settings: 100 uM; Xenopus oocytes; activity range class; read-out: S31 OOcyte Inhibition at 100 uM (%)
Sequence (P0DOF5 whole entry, looked up): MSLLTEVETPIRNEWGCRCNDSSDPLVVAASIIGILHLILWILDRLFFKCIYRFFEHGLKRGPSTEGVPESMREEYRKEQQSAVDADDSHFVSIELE

| SMILES | inhibition at 100 µM |
| --- | --- |
| C[Si](C)(C)c1ccc(CNC23CC4CC(CC(O)(C4)C2)C3)cc1 [Example 193a, (1s,3r,5R,7S)-3-((4-(trimethylsilyl)benzyl)amino)adamantan-1-ol] | 0 to 30% |
| CC(NC12CC3CC(CC(C3)C1)C2)c1ccc(C#N)s1 (stereo not drawn) [Example 92a, 5-(1-(adamantan-1-ylamino)ethyl)thiophene-2-carbonitrile] | 31 to 95% |
| c1csc(-c2ccc(CNC34CC5CC(CC(C5)C3)C4)o2)c1 [Example 138a, Adamantan-1-yl-(5-thiophen-2-yl-furan-2-ylmethyl)-amine] | 0 to 30% |
| FC(F)(F)c1ccc(-c2nc(CNC34CC5CC(CC(C5)C3)C4)no2)cc1 [Example 129a, N-((5-(4-(trifluoromethyl)phenyl)-1,2,4-oxadiazol-3-yl)methyl)adamantan-1-amine] | 0 to 30% |
| c1csc(-c2ccc(CNC34CC5CC(CC(C5)C3)C4)cn2)c1 [Example 58a, N-((6-(thiophen-2-yl)pyridin-3-yl)methyl)adamantan-1-amine] | 31 to 95% |
| COc1ccc(C(C)NC23CC4CC(CC(C4)C2)C3)cc1 (stereo not drawn) [Example 11a, N-(1-(4-methoxyphenyl)ethyl)adamantan-1-amine] | 31 to 95% |
| Brc1csc(CNC23CC4CC(CC(C4)C2)C3)c1 [Example 105a, N-((4-bromothiophen-2-yl)methyl)adamantan-1-amine] | 31 to 95% |
| Nc1ncc(CNC23CC4CC(CC(C4)C2)C3)s1 [Example 93a, 5-((adamantan-1-ylamino)methyl)thiazol-2-amine] | 31 to 95% |
| c1cc(C2CCCCC2)ccc1CNC12CC3CC(CC(C3)C1)C2 [Example 10a, Adamantan-1-yl-(4-cyclohexyl-benzyl)-amine] | 0 to 30% |
| Oc1cc(-c2cccs2)ccc1CNC12CC3CC(CC(C3)C1)C2 [Example 49a] | 0 to 30% |
| c1csc(-c2nc(CNC34CC5CC(CC(C5)C3)C4)no2)c1 [Example 146a, N-((5-(thiophen-2-yl)-1,2,4-oxadiazol-3-yl)methyl)adamantan-1-amine] | 0 to 30% |
| c1csc(-c2ccc(CNC3C4CC5CC(C4)CC3C5)s2)c1 (stereo not drawn) [Example 205a, N-([2,2′-bithiophen]-5-ylmethyl)adamantan-2-amine] | 0 to 30% |

same assay, conditions: Table 1; 100 uM; Xenopus oocytes, pH 5.5, -20 mV; read-out: S31 OOcyte Inhibition at 100 uM (%)

| SMILES | inhibition at 100 µM |
| --- | --- |
| c1cn(-c2ccc(CNC34CC5CC(CC(C5)C3)C4)cc2)cn1 [Example 36, Adamantan-1-yl-(4-imidazol-1-yl-benzyl)-amine] | 0 to 30% |
| Oc1ccc(CNC23CC4CC(CC2C4)C3)c(O)c1 [Example 111, 4-[(Hexahydro-2,5-methano-pentalen-3a-ylamino)-methyl]-benzene-1,3-diol] | 31 to 95% |
| c1cnc2sc(CNC34CC5CC(CC(C5)C3)C4)cc2c1 [Example 90, Adamantan-1-yl-thieno[2,3-b]pyridin-2-ylmethyl-amine] | 0 to 30% |
| c1cc(COc2ccc(CNC34CC5CC(CC(C5)C3)C4)cc2)co1 [Example 22, Adamantan-1-yl-[4-(furan-3-ylmethoxy)-benzyl]-amine] | 31 to 95% |
| CC(=O)Oc1ccc(CNC23CC4CC(CC(C4)C2)C3)cc1 [Example 33, Acetic acid 4-(adamantan-1-ylaminomethyl)-phenyl ester] | 31 to 95% |
| CC1(C)CCC(NCc2ccc(O)cc2O)CC1 [Example 108, 4-[(4,4-Dimethyl-cyclohexylamino)-methyl]-benzene-1,3-diol] | 31 to 95% |
| CC(NCc1ccc(O)cc1)C12CC3CC(CC(C3)C1)C2 (stereo not drawn) [Example 4, 4-[(1-Adamantan-1-yl-ethylamino)-methyl]-phenol] | 31 to 95% |
| c1cc2c(cc1CNC13CC4CC(CC(C4)C1)C3)OCO2 [Example 49] | 31 to 95% |
| Oc1ccc(CNC23CC4CC(CC(C4)C2)C3)cc1O [Example 45, 4-(Adamantan-1-ylaminomethyl)-benzene-1,2-diol] | 31 to 95% |
| Oc1ccc(/C=N/C23CC4CC(CC(C4)C2)C3)cc1 [Example 6] | 31 to 95% |
| Oc1cc(OCc2ccccc2)ccc1CNC12CC3CC(CC(C3)C1)C2 [Example 57, 2-(Adamantan-1-ylaminomethyl)-5-benzyloxy-phenol] | 31 to 95% |
| N=C(Nc1ccc(O)cc1)C12CC3CC(CC(C3)C1)C2 [Example 5] | 31 to 95% |
| c1cc(-c2ccc(CNC34CC5CC(CC(C5)C3)C4)cc2)co1 [Example 42, N-(4-(Furan-3-yl)benzyl)adamantan-1-amine] | 0 to 30% |
| Oc1ccc(CN2CC3CC4CC(C3)CC2C4)c(O)c1 [Example 116, 4-(4-Aza-tricyclo[4.3.1.13,8]undec-4-ylmethyl)-benzene-1,3-diol] | 31 to 95% |
| Oc1ccc(CNC2C3CC4CC(C3)CC2C4)c(O)c1 (stereo not drawn) [Example 100, 4-(Adamantan-2-ylaminomethyl)-benzene-1,3-diol] | 31 to 95% |
| c1ncc(CCNCC23CC4CC(CC(C4)C2)C3)[nH]1 [Example 1, Adamantan-1-ylmethyl-[2-(3H-imidazol-4-yl)-ethyl]-amine] | 0 to 30% |
| CC(=O)Nc1ccc(CNC23CC4CC(CC(C4)C2)C3)cc1 [Example 17, N-[4-(Adamantan-1-ylaminomethyl)-phenyl]-acetamide] | 0 to 30% |

same assay, conditions: Table 3; 100 uM; Xenopus oocytes, pH 5.5, -20 mV; read-out: S31 OOcyte Inhibition at 100 uM (%)

| SMILES | inhibition at 100 µM |
| --- | --- |
| Clc1ccccc1-c1ccc(CNC23CC4CC(CC(C4)C2)C3)nc1 [Example 72b, Adamantan-1-yl-[5-(2-chloro-phenyl)-pyridin-2-ylmethyl]-amine] | 0 to 30% |
| Cc1nnc(CNC23CC4CC(CC(C4)C2)C3)o1 [Example 17b, N-((5-methyl-1,3,4-oxadiazol-2-yl)methyl)adamantan-1-amine] | 0 to 30% |
| c1nc(N2CCCC2)ncc1CNC12CC3CC(CC(C3)C1)C2 [Example 54b, N-((2-(pyrrolidin-1-yl)pyrimidin-5-yl)methyl)adamantan-1-amine] | 0 to 30% |
| c1cc2nc(CNC34CC5CC(CC(C5)C3)C4)sc2s1 [Example 77b, Adamantan-1-yl-thieno[3,2-d]thiazol-2-ylmethyl-amine] | 0 to 30% |
| Clc1ncc(CNC23CC4CC(CC(C4)C2)C3)s1 [Example 13b, N-((2-chlorothiazol-5-yl)methyl)adamantan-1-amine] | 31 to 95% |
| CC(NC12CC3CC(CC(C3)C1)C2)c1ccc(-c2ccccc2)cc1 (stereo not drawn) [Example 4b, N-(1-([1,1′-biphenyl]-4-yl)ethyl)adamantan-1-amine] | 31 to 95% |
| CSc1ccccc1-c1cc(CNC23CC4CC(CC(C4)C2)C3)no1 [Example 42b, N-((5-(2-(methylthio)phenyl)isoxazol-3-yl)methyl)adamantan-1-amine] | 0 to 30% |
| c1nc(N2CCOCC2)ncc1CNC12CC3CC(CC(C3)C1)C2 [Example 57b, N-((2-morpholinopyrimidin-5-yl)methyl)adamantan-1-amine] | 0 to 30% |
| CCCc1nc(CNC23CC4CC(CC(C4)C2)C3)no1 [Example 29b, N-((5-propyl-1,2,4-oxadiazol-3-yl)methyl)adamantan-1-amine] | 0 to 30% |
| CSc1ccccc1-c1ccc(CNC23CC4CC(CC(C4)C2)C3)cc1 [Example 66b, Adamantan-1-yl-(2′-methylsulfanyl-biphenyl-4-ylmethyl)-amine] | 0 to 30% |
